These results are taken from patent publication US20080027129A1 (L'OREAL, priority 2006, published 2008).

The test system of data set [1] is normal human melanocytes (NHM). As to the kind of experiment: reactive oxygen species (ROS) generated by an H2O2 stress in cultured normal human melanocytes. Type of data set: cell-based. Conditions: NHM pretreated 12 h/18 h with compound, H2DCFDA 10 μM, H2O2 250 μM, read after 15 minutes; FIG. 1.
Protocol: Protocol for measuring the reactive oxygen species (ROS) generated by an H2O2 stress in cultured normal human melanocytes (NHM)
The normal human melanocytes (NHMs) were inoculated at D0 at the density of 4×10^4 cells/cm^2. […] After 20 minutes, the H2DCFDA solution was replaced with the culture medium. The NHMs were left for 30 minutes before adding the H2O2 solution (250 μM). The fluorescence was measured after 15 minutes in a fluoroscan (excitation: 485 nm, emission: 538 nm).
The compounds studied were used depending on their properties (concentration, preincubation time). N-Acetylcysteine (A9165-Sigma) was used as a reference molecule. The melanocytes were pretreated, 12 h/18 h at 37° C., with the compound studied in the culture medium, before being brought into contact for 20 minutes with H2DCFDA (10 μM in PBS). The H2DCFDA solution was then replaced with the culture medium containing the active agent studied. After incubating for 30 minutes the oxidative stress was induced by addition of 250 μM of H2O2 in the culture medium. The fluorescence was measured after 15 minutes in a fluoroscan (excitation: 485 nm, emission: 538 nm).
The results represent the crude fluorescence data, from which the auto-fluorescence values of “blank” cells, expressed in fluorescence units (fu), obtained during a representative experiment, have been deducted, see FIG. 1.
A further data set concerns GSH. Conditions: described in the literature; cited from earlier work.
For data set [2], the system named is normal human melanocytes (NHMs). The data set can be described thus: viability of cultured normal human melanocytes after a dopamine stress (Alamar Blue). Type of data set: cell-based. Set-up: cell viability after dopamine stress: scale not given here. To be noted: for viability at 200 µM: Homo sapiens, Melanocyte, compound 200 μM, read-out: cell viability after dopamine stress; for viability at 200 µM / cell viability after dopamine stress: D3, Alamar Blue. The method, then:
1-C-1. Effect of 3H-1,2-dithiole-3-thione (D3T) on the Viability of Cultured Normal Human Melanocytes (NHMs) After a Dopamine Stress:
The normal human melanocytes (NHMs) were inoculated at DO at the density of 1×10^4 cells/cm^2. After adhesion of the cells (3 h), the active agent studied was added to the culture medium. After 2 hours, the dopamine was added to the culture medium to begin the stress. At D3, the cell viability was measured using Alamar Blue (UP669413 UPTIMA, Interchim) according to the instructions of the supplier.

Read-outs that look alike come from different tables or passages of the source.

Turning to `S=c1ccss1` [D3T, 3H-1,2-dithiole-3-thione], in data set [1], the “reactive oxygen species (ROS) induced by H2O2, fluorescence” value is “decrease of the reactive oxygen species”. Further, the “level of GSH” value in the data set on GSH was “increasing the level of GSH”.

With `CC(=O)N[C@@H](CS)C(=O)O` [NAC, N-Acetylcysteine, reference compound], the viability at 200 µM stood at 100% in data set [2] (dopamine 0.00 μM); 102% in data set [2] (dopamine 20.00 μM); 102% in data set [2] (dopamine 40.00 μM); 99.7% in data set [2] (dopamine 60.00 μM); 95.7% in data set [2] (dopamine 70.00 μM); 89.4% in data set [2] (dopamine 80.00 μM). Further, the viability at 200 µM in data set [2] (dopamine 90.00 μM) was 77.7%; in data set [2] (dopamine 100.00 μM) it was 23.8%.

For `C=CCN=C=S` [allyl isothiocyanate], the “level of GSH” value in the data set on GSH is given as “increasing the level of GSH”.

With `S=C=NCCc1ccccc1` [phenethyl isothiocyanate], the “level of GSH” value in the data set with GSH is on record as “increasing the level of GSH”.

Consider `C[S@@+]([O-])CCCCN=C=S` [sulforaphane], for which, in the data set on GSH, the “level of GSH” value was “increasing the level of GSH”.

As for anethole dithiolethione [ADT], the “reactive oxygen species (ROS) induced by H2O2, fluorescence” value in data set [1] is “decrease of the reactive oxygen species”. For the same molecule, the “survival of the cells under dopamine stress compared with the reference compound” value in data set [2] (FIG. 3, versus N-acetylcysteine) is listed as “increases the survival of the cells with a better efficiency than N-acetylcysteine”. The “cell viability after dopamine stress” value was 100.00 in data set [2] (compound 2 μM, dopamine 0.00 μM); 97.48 in data set [2] (compound 2 μM, dopamine 20.00 μM); 100.00 in data set [2] (compound 2 μM, dopamine 40.00 μM); 98.74 in data set [2] (compound 2 μM, dopamine 60.00 μM); 95.90 in data set [2] (compound 2 μM, dopamine 70.00 μM); 92.43 in data set [2] (compound 2 μM, dopamine 80.00 μM). Moreover, the “cell viability after dopamine stress” value in data set [2] (compound 2 μM, dopamine 90.00 μM) came out at 82.02; in data set [2] (compound 2 μM, dopamine 100.00 μM), 51.42; in data set [2] (compound 15 μM, dopamine 0.00 μM), 100.00; in data set [2] (compound 15 μM, dopamine 20.00 μM) it was 92.68; in data set [2] (compound 15 μM, dopamine 40.00 μM) it was 95.22; in data set [2] (compound 15 μM, dopamine 60.00 μM), 95.54. In addition, the “cell viability after dopamine stress” value in data set [2] (compound 15 μM, dopamine 70.00 μM) is reported as 94.90; in data set [2] (compound 15 μM, dopamine 80.00 μM) it was 94.90; in data set [2] (compound 15 μM, dopamine 90.00 μM), 87.58; in data set [2] (compound 15 μM, dopamine 100.00 μM), 81.21. The “level of GSH” value in the data set with GSH is listed as “increasing the level of GSH”.
